In data set [1] the test system is red blood cells (RBC). Kind of data set: Hemolysis assay (hemoglobin release from erythrocytes). It counts as cell-based, mice. The method, then: The hemolytic activities of the peptides and peptide-polymer conjugates were evaluated by determining hemoglobin release from suspensions of mice blood. Fresh erythrocytes were obtained from the whole blood by centrifuging at 4 ℃ 1000 g for 30 min and washing with PBS 2 times. Then erythrocytes were diluted with PBS at the volume ration of 1:10. The 96-well plate was added to 100 μL erythrocyte suspension per well and incubated with peptides and conjugates solution with different concentrations for 1 h at 37 ℃, following centrifuged at 1000 rpm for 10 min. The supernatants were obtained and monitored by measuring absorbance at 570 nm (BioTek Cytation 5, USA) as previously described. 0.1% (v/v) Triton X-100 was used as a positive control and PBS was used as a negative control.

Data set [2] has as its target α-Chymotrypsin (Bos taurus, UniProt P00766). Put plainly: Proteolytic stability in α-chymotrypsin solution. It counts as in vitro ADME. Here is the method: (§1) The peptides were dissolved in H2O to a final concentration at 2 mM, respectively. α-Chymotrypsin was dissolved in PBS (0.5 ng/μL, containing 2 mM CaCl2, pH 7.4). Then, the peptide solutions (50 μL) were incubated with α-chymotrypsin solution (950 μL) at 37 ℃. 100 μL of digestion mixture was taken at the different time and then quenched with 20 μL of hydrochloric acid (1 M). The percent residual peptide was monitored by HPLC at 214 nm. Each experiment was performed in triplicate.

A short description of data set [3]: Proteolytic stability in α-chymotrypsin solution. It counts as in vitro ADME. The note with it: α-chymotrypsin solution, pH 7.4; after 1 h exposure to α-chymotrypsin; read-out: peptide remaining intact. The method, then: as §1

Molecules are shown by their SMILES. Positions of bridges follow the written chain, without caps; N, C: chain ends. Non-standard residues stand in square brackets, D forms with d. Residues, ends and D or L forms follow the SMILES beside them. S5 = C=CCCC[C@](C)(N)C(=O)O

In the case of `CC[C@H](C)[C@H](NC(C)=O)C(=O)N[C@@H](CC(N)=O)C(=O)N[C@@H](CC(C)C)C(=O)N[C@@H](CCCCN)C(=O)N[C@@H](C)C(=O)N[C@@H](CC(C)C)C(=O)N[C@@H](C)C(=O)N[C@@H](C)C(=O)N[C@@]1(C)CCCC=CCCC[C@@](C)(C(=O)N[C@@H](CC(C)C)C(N)=O)NC(=O)[C@H](CCCCN)NC(=O)[C@H](CCCCN)NC(=O)[C@H](C)NC1=O` [MP9] (Ac-INLKALAA[S5]AKK[S5]L-NH2; staple 9-13), the “RBC hemolytic activity (in words)” value in data set [1] was “lowest level of RBC hemolysis”. Also, in data set [2] (0.5 ng/μL α-chymotrypsin, pH 7.4, 37 ℃, read-out: T1/2 in α-chymotrypsin solution (converted)), the half-life was 5.27 h. Besides, the “fold increase in half-life (T1/2) versus MP” value in data set [2] (α-chymotrypsin) is given as 12.55 fold. Moreover, the share remaining at 1 h, 0.1 mM in data set [3] is greater than 87%.

As a reminder, the share remaining is what is left of the initial amount, in per cent.

Source of the values: publication PMC9065177, “Polymer chimera of stapled oncolytic peptide coupled with anti-PD-L1 peptide boosts immunotherapy of colorectal cancer” (Theranostics, 2022).
